Measured values: patent US8188078B2 (Sanofi-Aventis, priority 2007, dated 2012)

How the values were obtained:
MKN45 cells = assay: Test D: cellular proliferation by 14C-thymidine pulse, MKN45 cells; assay type: cell-based; details: Homo sapiens, MKN-45, cellular proliferation by 14C-thymidine pulse; cell line not stated (HCT116 or MKN45)
In short: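 MKN45 cells (7500/well, RPMI + 10% foetal calf serum) treated with 10 concentrations, 10000 to 0.3 nM in 3-fold steps, duplicate. 14C-thymidine (0.1 μCi/well) added at 72 h; incorporation counted after 24 h pulse, 96 h total treatment.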

c-MET = target: T1, c-MET (Homo sapiens, UniProt P08581); assay: Test A: HTRF Met test in 96-well format; assay type: biochemical
T1 construct: The recombinant DNA His-Tev-MET (956-1390) in pFastBac(Invitrogen); His (N, cleaved yes); Tev (TEV protease site) (N, cleaved yes); made in house; host or cells: SF21 insect cells (baculovirus, pFastBac)
In short: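 The kinase was the Sf21-expressed MET cytoplasmic domain (956–1390), His tag removed, used at 5 nM with compound (0.17 nM–10 µM, 3% DMSO) in 10 mM MOPS pH 7.4. Poly-GAT 1 µg/ml, 10 µM ATP and 5 mM MgCl2 reacted 10 min at RT. After an EDTA stop, phosphotyrosine was detected by HTRF (665/620 ratio).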

T1 sequence (P08581 956-1390): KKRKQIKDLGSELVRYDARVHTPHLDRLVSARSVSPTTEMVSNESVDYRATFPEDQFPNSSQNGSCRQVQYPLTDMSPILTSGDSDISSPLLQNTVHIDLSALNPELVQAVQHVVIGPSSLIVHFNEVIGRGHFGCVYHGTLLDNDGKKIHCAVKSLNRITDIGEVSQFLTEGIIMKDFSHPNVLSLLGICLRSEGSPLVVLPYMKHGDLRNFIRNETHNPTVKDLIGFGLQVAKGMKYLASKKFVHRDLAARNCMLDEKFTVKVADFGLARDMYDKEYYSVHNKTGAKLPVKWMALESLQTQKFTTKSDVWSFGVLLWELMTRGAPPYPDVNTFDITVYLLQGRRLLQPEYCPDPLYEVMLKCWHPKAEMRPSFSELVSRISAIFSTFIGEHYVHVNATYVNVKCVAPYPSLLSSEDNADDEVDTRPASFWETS

SMILES: CC(Oc1ccc2nc(NC(=O)NCCN3CCC(Cc4ccccc4)CC3)sc2c1)c1c(Cl)ccc(F)c1Cl (stereo not drawn) [Example 34, 1-[2-(4-benzylpiperidin-1-yl)ethyl]-3-{6-[1-(2,6-dichloro-3-fluorophenyl)ethoxy]-1,3-benzothiazol-2-yl}urea]
- melting point: 133 to 139 °C
- IC50 (MKN45 cells): > 10000 nM
- IC50 (c-MET): < 100 nM

SMILES: CC(Oc1ccc2nc(NC(=O)NCCN3CCOCC3)sc2c1)c1c(Cl)ccc(Cl)c1Cl (stereo not drawn) [Example 124, 1-[2-(morpholin-4-yl)ethyl]-3-{6-[1-(2,3,6-trichlorophenyl)ethoxy]-1,3-benzothiazol-2-yl}urea]
- melting point: 189 °C
- IC50 (MKN45 cells): 500 to 10000 nM
- IC50 (c-MET): < 100 nM

SMILES: CC(Oc1ccc2nc(NC(=O)NCCN3CCOCC3)sc2c1)c1c(F)ccc(F)c1F (stereo not drawn) [Example 60, 1-(2-morpholin-4-ylethyl)-3-{6-[1-(2,3,6-trifluorophenyl)ethoxy]-1,3-benzothiazol-2-yl}urea]
- melting point: 187 °C
- IC50 (MKN45 cells): > 10000 nM
- IC50 (c-MET): < 100 nM

SMILES: CC(Oc1ccc2nc(NC(=O)NCCN3CCNCC3)sc2c1)c1c(Cl)ccc(F)c1Cl.O=C(O)C(F)(F)F (stereo not drawn) [Example 37, 1-{6-[1-(2,6-Dichloro-3-fluorophenyl)ethoxy]-1,3-benzothiazol-2-yl}-3-(2-piperazin-1-ylethyl)urea trifluoroacetate]
- melting point: 138 to 169 °C
- IC50 (MKN45 cells): 500 to 10000 nM
- IC50 (c-MET): 100 to 10000 nM

SMILES: CC(Oc1ccc2nc(NC(=O)NCCN3CCOCC3)sc2c1)c1c(F)ccc(Cl)c1Cl (stereo not drawn) [Example 61, 1-{6-[1-(2,3-dichloro-6-fluorophenyl)ethoxy]-1,3-benzothiazol-2-yl}-3-(2-morpholin-4-ylethyl)urea]
- melting point: 200 °C
- IC50 (MKN45 cells): < 500 nM
- IC50 (c-MET): < 100 nM

SMILES: CC(Oc1ccc2nc(NC(=O)NCCN3CCCC3)sc2c1)c1c(F)ccc(Cl)c1Cl (stereo not drawn) [Example 120, 1-{6-[1-(2,3-dichloro-6-fluorophenyl)ethoxy]-1,3-benzothiazol-2-yl}-3-[2-(pyrrolidin-1-yl)ethyl]urea]
- melting point: 110 to 115 °C
- IC50 (MKN45 cells): < 500 nM
- IC50 (c-MET): < 100 nM

SMILES: CC(Oc1ccc2nc(NC(=O)NCCN3CCOCC3)[nH]c2c1)c1c(Cl)cccc1Cl (stereo not drawn) [Example 2, 1-{6-[1-(2,6-dichlorophenyl)ethoxy]-1H-benzimidazol-2-yl}-3-(2-morpholin-4-ylethyl)urea]
- melting point: 215 to 220 °C
- IC50 (MKN45 cells): 500 to 10000 nM
- IC50 (c-MET): < 100 nM

SMILES: CC(Oc1cc2sc(NC(=O)CN3CCNCC3)nc2cc1F)c1c(Cl)ccc(F)c1Cl (stereo not drawn) [Example 69, N-{6-[1-(2,6-dichloro-3-fluorophenyl)ethoxy]-5-fluoro-1,3-benzothiazol-2-yl}-2-(piperazin-1-yl)acetamide]
- melting point: 188 to 190 °C
- IC50 (MKN45 cells): 500 to 10000 nM
- IC50 (c-MET): < 100 nM

SMILES: CC(Oc1cc2sc(NC(=O)NCCCO)nc2cc1F)c1c(Cl)ccc(F)c1Cl (stereo not drawn) [Example 105, 1-{6-[1-(2,6-dichloro-3-fluorophenyl)ethoxy]-5-fluoro-1,3-benzothiazol-2-yl}-3-(3-hydroxypropyl)urea]
- melting point: 158 °C
- IC50 (MKN45 cells): 500 to 10000 nM
- IC50 (c-MET): < 100 nM

SMILES: CC(Oc1ccc2nc(NC(=O)C3CC3)sc2c1)c1c(Cl)ccc(F)c1Cl (stereo not drawn) [Example 66, N-{6-[1-(2,6-dichloro-3-fluorophenyl)ethoxy]-1,3-benzothiazol-2-yl}cyclopropanecarboxamide]
- melting point: 194 to 199 °C
- IC50 (MKN45 cells): 500 to 10000 nM
- IC50 (c-MET): < 100 nM

SMILES: CC(Oc1cc2sc(NC(=O)NCCN3CCOCC3)nc2cc1F)c1c(F)ccc(Cl)c1Cl (stereo not drawn) [Example 111, 1-{6-[1-(2,3-dichloro-6-fluorophenyl)ethoxy]-5-fluoro-1,3-benzothiazol-2-yl}-3-[2-(morpholin-4-yl)ethyl]urea]
- melting point: 220 to 225 °C
- IC50 (MKN45 cells): 500 to 10000 nM
- IC50 (c-MET): < 100 nM

SMILES: CC(Oc1cc2sc(NC(=O)NCCN3CCOCC3)nc2cc1F)c1c(Cl)cccc1Cl (stereo not drawn) [Example 29, 1-{6-[1-(2,6-dichlorophenyl)ethoxy]-5-fluoro-1,3-benzothiazol-2-yl}-3-(2-morpholin-4-ylethyl)urea]
- melting point: 200 to 205 °C
- IC50 (MKN45 cells): 500 to 10000 nM
- IC50 (c-MET): < 100 nM

SMILES: O=C(NCCN1CCOCC1)Nc1nc2cc(F)c(OCc3c(Cl)cccc3Cl)cc2s1 [Example 21, 1-{6-[(2,6-dichlorobenzyl)oxy]-5-fluoro-1,3-benzothiazol-2-yl}-3-(2-morpholin-4-ylethyl)urea]
- melting point: 206 °C
- IC50 (MKN45 cells): 500 to 10000 nM
- IC50 (c-MET): < 100 nM

SMILES: CC(Oc1ccc2nc(NC(=O)NCCC3CCCN3C)sc2c1)c1c(F)ccc(Cl)c1Cl (stereo not drawn) [Example 110, 1-{6-[1-(2,3-dichloro-6-fluorophenyl)ethoxy]-1,3-benzothiazol-2-yl}-3-[2-(1-methylpyrrolidin-2-yl)ethyl]urea]
- melting point: 102 to 105 °C
- IC50 (MKN45 cells): 500 to 10000 nM
- IC50 (c-MET): < 100 nM

SMILES: CC(Oc1cc2sc(NC(=O)NCC(=O)N3CCN(C)CC3)nc2cc1F)c1c(Cl)ccc(F)c1Cl (stereo not drawn) [Example 129, 1-{6-[1-(2,6-dichloro-3-fluorophenyl)ethoxy]-5-fluoro-1,3-benzothiazol-2-yl}-3-[2-(4-methylpiperazin-1-yl)-2-oxoethyl]urea]
- melting point: 235 to 238 °C
- IC50 (MKN45 cells): 500 to 10000 nM
- IC50 (c-MET): < 100 nM

SMILES: CC(Oc1cc2sc(NC(=O)NCCOCC3CC3)nc2cc1F)c1c(Cl)ccc(F)c1Cl (stereo not drawn) [Example 103, 1-[2-(cyclopropylmethoxy)ethyl]-3-{6-[1-(2,6-dichloro-3-fluorophenyl)ethoxy]-5-fluoro-1,3-benzothiazol-2-yl}urea]
- melting point: 178 to 184 °C
- IC50 (MKN45 cells): 500 to 10000 nM
- IC50 (c-MET): < 100 nM

SMILES: CC(Oc1ccc2nc(NC(=O)NCCN3CCN(C)CC3)sc2c1)c1c(F)ccc(Cl)c1Cl (stereo not drawn) [Example 108, 1-{6-[1-(2,3-dichloro-6-fluorophenyl)ethoxy]-1,3-benzothiazol-2-yl}-3-[2-(4-methylpiperazin-1-yl)ethyl]urea]
- melting point: 105 to 110 °C
- IC50 (MKN45 cells): 500 to 10000 nM
- IC50 (c-MET): < 100 nM

SMILES: CC(Oc1ccc2nc(NC(=O)NCCN3CCCC3)sc2c1)c1c(Cl)ccc(Cl)c1Cl (stereo not drawn) [Example 125, 1-[2-(pyrrolidin-1-yl)ethyl]-3-{6-[1-(2,3,6-trichlorophenyl)ethoxy]-1,3-benzothiazol-2-yl}urea]
- melting point: 189 °C
- IC50 (MKN45 cells): 500 to 10000 nM
- IC50 (c-MET): < 100 nM

SMILES: Cc1ccc(F)c(C(C)Oc2ccc3nc(NC(=O)NCCN4CCOCC4)sc3c2)c1F (stereo not drawn) [Example 123, 1-{6-[1-(2,6-difluoro-3-methylphenyl)ethoxy]-1,3-benzothiazol-2-yl}-3-[2-(morpholin-4-yl)ethyl]urea]
- melting point: 92 to 95 °C
- IC50 (MKN45 cells): 500 to 10000 nM
- IC50 (c-MET): < 100 nM

SMILES: CC(Oc1ccc2nc(NC(=O)NCCN3CCOCC3)sc2c1)c1c(Cl)cccc1Cl (stereo not drawn) [Example 17, 1-{6-[1-(2,6-dichlorophenyl)ethoxy]-1,3-benzothiazol-2-yl}-3-(2-morpholin-4-ylethyl)urea]
- melting point: 165 to 168 °C
- IC50 (MKN45 cells): 500 to 10000 nM
- IC50 (c-MET): < 100 nM

SMILES: CC(Oc1cc2[nH]c(NC(=O)NCCN3CCOCC3)nc2cc1F)c1c(Cl)cccc1Cl (stereo not drawn) [Example 5, 1-{6-[1-(2,6-dichlorophenyl)ethoxy]-5-fluoro-1H-benzimidazol-2-yl}-3-(2-morpholin-4-ylethyl)urea]
- melting point: 210 to 216 °C
- IC50 (MKN45 cells): 500 to 10000 nM
- IC50 (c-MET): < 100 nM
